In brackets after ≈: the same amount, converted by molar mass. Like-named read-outs stand apart in the source and are kept apart here.
Assay: Solubility experiments (approximate solubility by solvent aliquot addition)
Format: physicochemical
Details: thermodynamic from solid
Method: Approximately 20 mg of Form A of Compound (1) was placed in each of 48 vials and 5 volume aliquots of the appropriate solvent systems were added to the appropriate vial. Between each addition, the mixture was checked for dissolution and if no dissolution was apparent, the mixture was warmed to ca. 50° C. and checked again. This procedure was continued until dissolution was observed or until 100 volumes of solvent had been added.

## O=C(O)CNC(=O)c1ncc(-c2cccc(Cl)c2)cc1O [Form A of Compound (I), {[5-(3-chlorophenyl)-3-hydroxypyridine-2-carbonyl]amino}acetic acid]
Aqueous with cosolvent or surfactant or cyclodextrin, Solvent: MeOH/Water (20%), ca. 50° C., read-out: Solubility (mg/mL) (ca. 50° C.)
  solubility: < 10 mg/mL
Aqueous with cosolvent or surfactant or cyclodextrin, Solvent: MeOH/Water (50%), RT (ca. 22° C.), read-out: Solubility (mg/mL) RT (ca. 22° C.)
  solubility: < 10 mg/mL
Aqueous with cosolvent or surfactant or cyclodextrin, Solvent: MeOH/Water (50%), ca. 50° C., read-out: Solubility (mg/mL) (ca. 50° C.)
  solubility: < 10 mg/mL
Ethyl acetate/cyclohexane (1:2), organic solvent or mixture, Solvent: EtOAc/Cyclohexane (1:2), RT (ca. 22° C.), read-out: Solubility (mg/mL) RT (ca. 22° C.)
  solubility: < 10 mg/mL
Organic solvent or mixture, Solvent: 1,2-Propanediol, RT (ca. 22° C.), read-out: Solubility (mg/mL) RT (ca. 22° C.)
  solubility: < 20 mg/mL
Organic solvent or mixture, Solvent: 1,2-Propanediol, ca. 50° C., read-out: Solubility (mg/mL) (ca. 50° C.)
  solubility: 20 mg/mL (≈ 65.2 mM)
Organic solvent or mixture, Solvent: 1,4-Dioxane, RT (ca. 22° C.), read-out: Solubility (mg/mL) RT (ca. 22° C.)
  solubility: > 200 mg/mL
Organic solvent or mixture, Solvent: 1,4-Dioxane, ca. 50° C., read-out: Solubility (mg/mL) (ca. 50° C.)
  solubility: > 200 mg/mL
Organic solvent or mixture, Solvent: 1-Butanol (1-BuOH), RT (ca. 22° C.), read-out: Solubility (mg/mL) RT (ca. 22° C.)
  solubility: < 20 mg/mL
Organic solvent or mixture, Solvent: 1-Butanol (1-BuOH), ca. 50° C., read-out: Solubility (mg/mL) (ca. 50° C.)
  solubility: 20 mg/mL (≈ 65.2 mM)
Organic solvent or mixture, Solvent: 1-Propanol (1-PrOH), RT (ca. 22° C.), read-out: Solubility (mg/mL) RT (ca. 22° C.)
  solubility: < 20 mg/mL
Organic solvent or mixture, Solvent: 1-Propanol (1-PrOH), ca. 50° C., read-out: Solubility (mg/mL) (ca. 50° C.)
  solubility: 20 mg/mL (≈ 65.2 mM)
Organic solvent or mixture, Solvent: 2-Ethoxyethanol, RT (ca. 22° C.), read-out: Solubility (mg/mL) RT (ca. 22° C.)
  solubility: < 200 mg/mL
Organic solvent or mixture, Solvent: 2-Ethoxyethanol, ca. 50° C., read-out: Solubility (mg/mL) (ca. 50° C.)
  solubility: 200 mg/mL (≈ 652 mM)
Organic solvent or mixture, Solvent: 2-Methoxyethanol, RT (ca. 22° C.), read-out: Solubility (mg/mL) RT (ca. 22° C.)
  solubility: > 200 mg/mL
Organic solvent or mixture, Solvent: 2-Methoxyethanol, ca. 50° C., read-out: Solubility (mg/mL) (ca. 50° C.)
  solubility: > 200 mg/mL
Organic solvent or mixture, Solvent: 2-Methyl tetrahydrofuran (2-MeTHF), RT (ca. 22° C.), read-out: Solubility (mg/mL) RT (ca. 22° C.)
  solubility: > 200 mg/mL
Organic solvent or mixture, Solvent: 2-Methyl tetrahydrofuran (2-MeTHF), ca. 50° C., read-out: Solubility (mg/mL) (ca. 50° C.)
  solubility: > 200 mg/mL
Organic solvent or mixture, Solvent: 2-Propanol (IPA), RT (ca. 22° C.), read-out: Solubility (mg/mL) RT (ca. 22° C.)
  solubility: < 13 mg/mL
Organic solvent or mixture, Solvent: 2-Propanol (IPA), ca. 50° C., read-out: Solubility (mg/mL) (ca. 50° C.)
  solubility: 13 mg/mL (≈ 42.4 mM)
Organic solvent or mixture, Solvent: 3-Methyl-1-butanol, RT (ca. 22° C.), read-out: Solubility (mg/mL) RT (ca. 22° C.)
  solubility: < 10 mg/mL
Organic solvent or mixture, Solvent: 3-Methyl-1-butanol, ca. 50° C., read-out: Solubility (mg/mL) (ca. 50° C.)
  solubility: < 10 mg/mL
Organic solvent or mixture, Solvent: Acetone/Water (3%), RT (ca. 22° C.), read-out: Solubility (mg/mL) RT (ca. 22° C.)
  solubility: < 200 mg/mL
Organic solvent or mixture, Solvent: Acetone/Water (3%), ca. 50° C., read-out: Solubility (mg/mL) (ca. 50° C.)
  solubility: 200 mg/mL (≈ 652 mM)
Organic solvent or mixture, Solvent: Acetone/Water (20%), RT (ca. 22° C.), read-out: Solubility (mg/mL) RT (ca. 22° C.)
  solubility: < 200 mg/mL
Organic solvent or mixture, Solvent: Acetone/Water (20%), ca. 50° C., read-out: Solubility (mg/mL) (ca. 50° C.)
  solubility: 200 mg/mL (≈ 652 mM)
Organic solvent or mixture, Solvent: Acetone, RT (ca. 22° C.), read-out: Solubility (mg/mL) RT (ca. 22° C.)
  solubility: 100 mg/mL (≈ 326 mM)
Organic solvent or mixture, Solvent: Acetone, ca. 50° C., read-out: Solubility (mg/mL) (ca. 50° C.)
  solubility: > 100 mg/mL
Organic solvent or mixture, Solvent: Acetonitrile, RT (ca. 22° C.), read-out: Solubility (mg/mL) RT (ca. 22° C.)
  solubility: < 13 mg/mL
Organic solvent or mixture, Solvent: Acetonitrile, ca. 50° C., read-out: Solubility (mg/mL) (ca. 50° C.)
  solubility: 13 mg/mL (≈ 42.4 mM)
Organic solvent or mixture, Solvent: Anisole, RT (ca. 22° C.), read-out: Solubility (mg/mL) RT (ca. 22° C.)
  solubility: < 40 mg/mL
Organic solvent or mixture, Solvent: Anisole, ca. 50° C., read-out: Solubility (mg/mL) (ca. 50° C.)
  solubility: 40 mg/mL (≈ 130 mM)
Organic solvent or mixture, Solvent: Benzonitrile, RT (ca. 22° C.), read-out: Solubility (mg/mL) RT (ca. 22° C.)
  solubility: < 10 mg/mL
Organic solvent or mixture, Solvent: Benzonitrile, ca. 50° C., read-out: Solubility (mg/mL) (ca. 50° C.)
  solubility: < 10 mg/mL
Organic solvent or mixture, Solvent: Benzyl alcohol, RT (ca. 22° C.), read-out: Solubility (mg/mL) RT (ca. 22° C.)
  solubility: < 68 mg/mL
Organic solvent or mixture, Solvent: Benzyl alcohol, ca. 50° C., read-out: Solubility (mg/mL) (ca. 50° C.)
  solubility: 68 mg/mL (≈ 222 mM)
Organic solvent or mixture, Solvent: Chloroform, RT (ca. 22° C.), read-out: Solubility (mg/mL) RT (ca. 22° C.)
  solubility: < 10 mg/mL
Organic solvent or mixture, Solvent: Chloroform, ca. 50° C., read-out: Solubility (mg/mL) (ca. 50° C.)
  solubility: < 10 mg/mL
Organic solvent or mixture, Solvent: Cumene, RT (ca. 22° C.), read-out: Solubility (mg/mL) RT (ca. 22° C.)
  solubility: < 10 mg/mL
Organic solvent or mixture, Solvent: Cumene, ca. 50° C., read-out: Solubility (mg/mL) (ca. 50° C.)
  solubility: < 10 mg/mL
Organic solvent or mixture, Solvent: Cyclohexane, RT (ca. 22° C.), read-out: Solubility (mg/mL) RT (ca. 22° C.)
  solubility: < 10 mg/mL
Organic solvent or mixture, Solvent: Cyclohexane, ca. 50° C., read-out: Solubility (mg/mL) (ca. 50° C.)
  solubility: < 10 mg/mL
Organic solvent or mixture, Solvent: Cyclohexanone, RT (ca. 22° C.), read-out: Solubility (mg/mL) RT (ca. 22° C.)
  solubility: < 200 mg/mL
Organic solvent or mixture, Solvent: Cyclohexanone, ca. 50° C., read-out: Solubility (mg/mL) (ca. 50° C.)
  solubility: 200 mg/mL (≈ 652 mM)
Organic solvent or mixture, Solvent: Dichloromethane (DCM), RT (ca. 22° C.), read-out: Solubility (mg/mL) RT (ca. 22° C.)
  solubility: < 10 mg/mL
Organic solvent or mixture, Solvent: Dichloromethane (DCM), ca. 50° C., read-out: Solubility (mg/mL) (ca. 50° C.)
  solubility: < 10 mg/mL
Organic solvent or mixture, Solvent: Diethyl ether, RT (ca. 22° C.), read-out: Solubility (mg/mL) RT (ca. 22° C.)
  solubility: < 10 mg/mL
Organic solvent or mixture, Solvent: Diethyl ether, ca. 50° C., read-out: Solubility (mg/mL) (ca. 50° C.)
  solubility: 10 mg/mL (≈ 32.6 mM)
Organic solvent or mixture, Solvent: Diisopropyl ether (DIPE), RT (ca. 22° C.), read-out: Solubility (mg/mL) RT (ca. 22° C.)
  solubility: < 10 mg/mL

From patent US12419877B2, “Solid forms of {[5-(3-chlorophenyl)-3-hydroxypyridine-2-carbonyl]amino}acetic acid, compositions, and uses thereof” (Akebia Therapeutics, Inc., priority 2013, dated 2025)
